The compounds below were run against Neuronal acetylcholine receptor subunit alpha-4/beta-2 (Homo sapiens, UniProt P43681+P17787) (assay: Antagonist activity at human nAChR alpha4/beta2 receptor expressed in HEK ts201 cells assessed as calcium accumulation by fluorescence analysis).
Neuronal acetylcholine receptor subunit alpha-4/beta-2, sequence (P43681 whole entry): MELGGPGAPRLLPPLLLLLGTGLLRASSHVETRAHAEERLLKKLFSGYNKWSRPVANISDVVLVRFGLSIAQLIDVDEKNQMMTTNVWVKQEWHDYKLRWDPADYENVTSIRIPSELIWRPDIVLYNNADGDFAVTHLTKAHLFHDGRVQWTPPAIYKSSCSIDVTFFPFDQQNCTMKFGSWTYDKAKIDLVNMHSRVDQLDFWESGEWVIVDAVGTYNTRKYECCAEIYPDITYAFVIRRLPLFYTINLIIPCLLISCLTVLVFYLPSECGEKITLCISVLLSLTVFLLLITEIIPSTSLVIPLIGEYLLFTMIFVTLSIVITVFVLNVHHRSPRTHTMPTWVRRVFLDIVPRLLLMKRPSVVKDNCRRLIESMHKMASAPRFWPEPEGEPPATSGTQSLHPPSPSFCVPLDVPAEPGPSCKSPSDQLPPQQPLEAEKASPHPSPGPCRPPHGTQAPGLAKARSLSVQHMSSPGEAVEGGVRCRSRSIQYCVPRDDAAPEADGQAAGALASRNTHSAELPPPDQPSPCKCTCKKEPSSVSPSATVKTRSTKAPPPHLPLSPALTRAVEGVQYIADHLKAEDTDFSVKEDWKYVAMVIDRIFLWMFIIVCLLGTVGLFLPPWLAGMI
Neuronal acetylcholine receptor subunit alpha-4/beta-2, sequence (P17787 whole entry): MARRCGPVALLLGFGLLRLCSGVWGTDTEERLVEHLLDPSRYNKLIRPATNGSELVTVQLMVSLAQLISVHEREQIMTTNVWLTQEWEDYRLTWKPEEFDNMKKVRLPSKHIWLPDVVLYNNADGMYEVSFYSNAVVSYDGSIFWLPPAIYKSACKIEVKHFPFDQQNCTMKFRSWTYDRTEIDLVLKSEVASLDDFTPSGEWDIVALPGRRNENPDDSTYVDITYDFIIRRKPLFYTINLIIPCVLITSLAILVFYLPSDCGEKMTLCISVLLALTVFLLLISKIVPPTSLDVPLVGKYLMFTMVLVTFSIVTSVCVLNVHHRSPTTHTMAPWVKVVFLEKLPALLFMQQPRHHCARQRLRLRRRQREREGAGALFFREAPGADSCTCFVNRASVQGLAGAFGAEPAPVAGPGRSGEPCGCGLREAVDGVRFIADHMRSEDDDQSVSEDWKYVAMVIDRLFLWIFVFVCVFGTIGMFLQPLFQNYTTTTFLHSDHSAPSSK
`O=C(OCC1CCCN(CCCc2ccccc2)C1)c1ccccc1-n1c(O)cc(CCc2ccccc2)c1O` (stereo not given) was tested, and the IC50 was 5.13 µM.
Compound `CCN1CCCC(COC(=O)c2ccccc2-n2c(O)cc(Cc3ccccc3)c2O)C1` (stereo not given) has an IC50 of 4.47 µM.
In the case of `O=C(OCC1=CCCN(CCCc2ccccc2)C1)c1ccccc1-n1c(O)cc(Cc2ccccc2)c1O`, the IC50 is reported as 5.13 µM.
`O=C(OCC1CCCN(CCc2ccccc2)C1)c1ccccc1-n1c(O)cc(Cc2ccccc2)c1O` (stereo not given) gave an IC50 of 4.47 µM.
`Cc1cc(O)n(-c2ccccc2C(=O)OC[C@@H]2CCCN(CCCc3ccccc3)C2)c1O` showed an IC50 of 8.91 µM.

Source: BindingDB's records for doi:10.1016/j.bmcl.2011.11.051 (The Ohio State University, 2012)
